Reference: patent publication US20240246918A1, “COMPOUNDS AND COMPOSITIONS AS EIF4E INHIBITORS AND THE USES THEREOF” (Ribometrix, Inc., priority 2022, published 2024)
Read-outs that look alike come from different tables or passages of the source.

Assays:
[1] = system: COLO 205 colorectal tumor cells; experiment: Tumor cell viability inhibition assay (CellTiter-Glo 2.0, 72 hours); assay type: cell-based; conditions: COLO 205 cell viability
In short: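 IC50 derived by 4-parameter fitting after normalizing luminescence to DMSO and max-inhibition wells. Compounds tested as 11 concentrations in 4-fold steps on COLO 205 cells seeded at 1500 per well in RPMI-1640/10% FBS; ATP content measured with CellTiter-Glo 2.0 after 72 h.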

[2] = system: cap-dependent translation in Flp-In-293 reporter cells; experiment: Cellular cap-dependent translation inhibition assay (dual luciferase assay, DLA; Fluc/Rluc ratio, 24 hours); assay type: cell-based
human eIF4E protein = biological target: T1, human eIF4E protein (Homo sapiens, UniProt P06730); experiment: Biochemical competitive binding assay (TR-FRET competition, EDA-m7GDP-ATTO-647N probe); conditions: read-out: hEIF4E TR-FRET IC50
T1 construct: purchased Novus NBP-45314
T1 sequence (P06730 whole entry): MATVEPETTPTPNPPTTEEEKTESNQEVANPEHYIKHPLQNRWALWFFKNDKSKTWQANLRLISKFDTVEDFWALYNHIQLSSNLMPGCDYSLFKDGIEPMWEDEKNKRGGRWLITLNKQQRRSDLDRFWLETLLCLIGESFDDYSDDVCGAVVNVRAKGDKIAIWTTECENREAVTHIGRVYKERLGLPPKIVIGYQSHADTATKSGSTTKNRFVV
In short: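 IC50 values come from 4-parameter fits of the normalized 665/620 nm TR-FRET ratio. Compound was first incubated 15 min with 4 nM recombinant His-eIF4E bound to 2.5 nM Eu-anti-His antibody, then 15 min with 5 nM m7GDP-ATTO-647N tracer, in pH 7.5 HEPES buffer with 100 mM KCl, Tween-20 and BSA.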

[3] = Homo sapiens, Flp-In-293, 24 h, dual luciferase assay, Flp-In-293 reporter cells, 24 hours, Fluc/Rluc ratio, read-out: DLA 205 IC50
[4] = dual luciferase assay, Flp-In-293 reporter cells, 24 hours, Fluc/Rluc ratio, read-out: DLA 205 IC50
[5] = read-out: DLA 205 IC50, dual luciferase assay, Flp-In-293 reporter cells, 24 hours, Fluc/Rluc ratio

## Cc1cc(-c2cc(Cl)ccc2OCCn2c(C)nc3c(c2=O)CC2(CC3)CCN(C3CC3)CC2)c2scc(C(=O)O)c2n1 [Compound 267, 7-(5-chloro-2-(2-(1-cyclopropyl-2′-methyl-4′-oxo-7′,8′-dihydro-4′H-spiro[piperidine-4,6′-quinazolin]-3′(5′H)-yl)ethoxy)phenyl)-5-methylthieno[3,2-b]pyridine-3-carboxylic acid]
[1]; Homo sapiens, COLO 205, 72 h
  IC50: 5000 to 20000 nM
[2]; [3]
  IC50: < 1000 nM
Human eIF4E protein
  IC50: < 100 nM

## Cc1cc(-c2cc(Cl)ccc2OCCn2c(C)nc3c(c2=O)CC(N(C)CC2(C)COC2)CC3)c2scc(C(=O)O)c2n1 (single isomer, unassigned) [Compound 345]
[1]
  IC50: 5000 to 20000 nM
[2]; [4]
  IC50: < 1000 nM
Human eIF4E protein
  IC50: < 100 nM

## Cc1cc(-c2cc(Cl)ccc2OCCn2c(C)nc3c(c2=O)CC(N(C)C2CCCC2(F)F)CC3)c2scc(C(=O)O)c2n1 (single isomer, unassigned) [Compound 300]
[1]; Homo sapiens, COLO 205, 72 h
  IC50: < 5000 nM
[2]; [3]
  IC50: < 1000 nM
Human eIF4E protein
  IC50: < 100 nM

## Cc1cc(-c2cc(Cl)ccc2OCCn2c(C)nc3c(c2=O)CC(N(C)C2CCN(CC(F)(F)F)CC2)CC3)c2scc(C(=O)O)c2n1 (stereo not drawn) [Compound 276]
[1]; Homo sapiens, COLO 205, 72 h
  IC50: < 5000 nM
[2]; [3]
  IC50: < 1000 nM
Human eIF4E protein
  IC50: < 100 nM

## Cc1cc(-c2cc(Cl)ccc2OCCn2c(C)nc3c(c2=O)CC(N(C)C2(c4ccc(F)cc4)CC2)CC3)c2scc(C(=O)NS(C)(=O)=O)c2n1 (stereo not drawn) [Compound 274]
[1]; Homo sapiens, COLO 205, 72 h
  IC50: 5000 to 20000 nM
[2]; [3]
  IC50: 1000 to 5000 nM
Human eIF4E protein
  IC50: 100 to 500 nM

## Cc1nc2c(c(=O)n1CC#Cc1ccc(Cl)cc1-c1ccnc3c(C(=O)O)csc13)CC(N(C)C1CCN(CC(F)(F)F)CC1)CC2 (stereo not drawn) [Compound 275]
[1]; Homo sapiens, COLO 205, 72 h
  IC50: < 5000 nM
[2]; [3]
  IC50: < 1000 nM
Human eIF4E protein
  IC50: < 100 nM

## Cc1nc2c(c(=O)n1CC#Cc1ccc(Cl)cc1-c1ccnc3c(C(=O)O)csc13)CC(N(C)C)CC2 (stereo not drawn) [Compound 350]
[1]; Homo sapiens, COLO 205, 72 h
  IC50: > 20000 nM
[2]; [3]
  IC50: > 5000 nM
Human eIF4E protein
  IC50: 500 to 5000 nM

## Cc1cc(-c2cc(Cl)ccc2OCCn2c(C)nc3c(c2=O)CC(N(C)C2CC(F)(F)C2)CC3)c2scc(C(=O)O)c2n1 (stereo not drawn) [Compound 40, 7-[2-[2-[6-[[3,3-bis(fluorenyl)cyclobutyl]-methyl-amino]-2-methyl-4-oxidanylidene-5,6,7,8-tetrahydroquinazolin-3-yl]ethoxy]-5-chloranyl-phenyl]-5-methyl-thieno[3,2-b]pyridine-3-carboxylic acid; 2,2,2-tris(fluorenyl)acetic acid]
[1]; Homo sapiens, COLO 205, 72 h
  IC50: < 5000 nM
[2]; [3]
  IC50: < 1000 nM
Human eIF4E protein
  IC50: < 100 nM

## Cc1cc(-c2cc(Cl)ccc2OCCn2c(C)nc3c(c2=O)CC(N2CCN(C)C(=O)C2)CC3)c2scc(C(=O)NS(C)(=O)=O)c2n1 (stereo not drawn) [Compound 88]
[1]; Homo sapiens, COLO 205, 72 h
  IC50: > 20000 nM
[2]; [3]
  IC50: > 5000 nM
Human eIF4E protein
  IC50: < 100 nM

## Cc1nc2c(c(=O)n1CC#Cc1ccc(Cl)cc1-c1ccnc3c(C(=O)NS(C)(=O)=O)csc13)CC(N(C)C1CC1)CC2 (stereo not drawn) [Compound 271]
[1]; Homo sapiens, COLO 205, 72 h
  IC50: < 5000 nM
[2]; [3]
  IC50: < 1000 nM
Human eIF4E protein
  IC50: < 100 nM

## COC1CCc2nc(C)n(CCOc3ccc(Cl)cc3-c3cc(C)nc4c(C(=O)O)csc34)c(=O)c2C1 (single isomer, unassigned) [Compound 5]
[1]
  IC50: 5000 to 20000 nM
[2]; [5]
  IC50: > 5000 nM
Human eIF4E protein
  IC50: 100 to 500 nM

## Cc1nc2c(c(=O)n1CC#Cc1ccc(Cl)cc1-c1ccnc3c(C(=O)O)csc13)C[C@@H](N1CC[C@@H](F)C1)CC2 (single isomer, unassigned) [Compound 327]
[1]; Homo sapiens, COLO 205, 72 h
  IC50: < 5000 nM
[2]; [3]
  IC50: < 1000 nM
Human eIF4E protein
  IC50: < 100 nM

## Cc1cc(-c2cc(Cl)ccc2OCCn2c(C)nc3c(c2=O)CC(N(CC(F)(F)F)C2CCC2)CC3)c2scc(C(=O)O)c2n1 (stereo not drawn) [Compound 83]
[1]; Homo sapiens, COLO 205, 72 h
  IC50: 5000 to 20000 nM
[2]; [3]
  IC50: 1000 to 5000 nM
Human eIF4E protein
  IC50: < 100 nM

## Cc1cc(-c2cc(Cl)ccc2OCCn2c(C)nc3c(c2=O)CC(N2CC4(CCN(C)CC4)C2)CC3)c2scc(C(=O)O)c2n1 (stereo not drawn) [Compound 22]
[1]; Homo sapiens, COLO 205, 72 h
  IC50: > 20000 nM
[2]; [3]
  IC50: 1000 to 5000 nM
Human eIF4E protein
  IC50: < 100 nM

## Cc1nc2c(c(=O)n1CC#Cc1ccc(Cl)cc1-c1ccnc3c(C(=O)O)csc13)CC(N1CC(F)C1)CC2 (stereo not drawn) [Compound 355]
[1]; Homo sapiens, COLO 205, 72 h
  IC50: 5000 to 20000 nM
[2]; [3]
  IC50: < 1000 nM
Human eIF4E protein
  IC50: < 100 nM

## Cc1cc(-c2cc(Cl)ccc2OCCn2c(C)nc3c(c2=O)C[C@@H](N2CCC[C@H](F)C2)CC3)c2scc(C(=O)O)c2n1 (single isomer, unassigned) [Compound 282]
[1]; Homo sapiens, COLO 205, 72 h
  IC50: < 5000 nM
[2]; [3]
  IC50: < 1000 nM
Human eIF4E protein
  IC50: < 100 nM

## Cc1nc2c(c(=O)n1CC#Cc1ccc(Cl)cc1-c1ccnc3c(C(=O)O)csc13)CC(N(C)C1CC1)CC2 (stereo not drawn) [Compound 290]
[1]; Homo sapiens, COLO 205, 72 h
  IC50: < 5000 nM
[2]; [3]
  IC50: < 1000 nM
Human eIF4E protein
  IC50: < 100 nM

## Cc1cc(-c2cc(Cl)ccc2OCCn2c(C)nc3c(c2=O)CC(N(C)Cc2cc[nH]c(=O)c2)CC3)c2scc(C(=O)O)c2n1 (single isomer, unassigned) [Compound 247]
[1]
  IC50: > 20000 nM
[2]; [4]
  IC50: > 5000 nM
Human eIF4E protein
  IC50: < 100 nM

## COC1CCc2nc(C)n(CCOc3ccc(Cl)cc3-c3cc(C)nc4c(C(=O)O)csc34)c(=O)c2C1 (stereo not drawn) [Compound 7]
[1]; Homo sapiens
  IC50: 5000 to 20000 nM
[2]; Homo sapiens, Flp-In-293, 24 h, read-out: DLA 205 IC50, dual luciferase assay, Flp-In-293 reporter cells, 24 hours, Fluc/Rluc ratio
  IC50: 1000 to 5000 nM
Human eIF4E protein
  IC50: 100 to 500 nM

## Cc1cc(-c2cc(Cl)ccc2OCCn2c(C)nc3c(c2=O)CC(N2CCCCC2)CC3)c2scc(C(=O)O)c2n1 (single isomer, unassigned) [Compound 249]
[1]; Homo sapiens, COLO 205, 72 h
  IC50: 5000 to 20000 nM
[2]; [3]
  IC50: < 1000 nM
Human eIF4E protein
  IC50: < 100 nM

## Cc1cc(-c2cc(Cl)ccc2OCCn2c(C)nc3c(c2=O)CC(N2CCC(F)(F)CC2)CC3)c2scc(C(=O)NS(C)(=O)=O)c2n1 (stereo not drawn) [Compound 52]
[1]; Homo sapiens, COLO 205, 72 h
  IC50: < 5000 nM
[2]; [3]
  IC50: < 1000 nM
Human eIF4E protein
  IC50: < 100 nM

## Cc1cc(-c2cc(Cl)ccc2OCCn2c(C)nc3c(c2=O)CC(N(C)C2CC2)CC3)c2scc(C(=O)NS(=O)(=O)c3ccccn3)c2n1 (single isomer, unassigned) [Compound 286]
[1]; Homo sapiens, COLO 205, 72 h
  IC50: < 5000 nM
[2]; [3]
  IC50: < 1000 nM
Human eIF4E protein
  IC50: < 100 nM

## Cc1cc(-c2cc(Cl)ccc2OCCn2c(C)nc3c(c2=O)CC(N(C)C)CC3)c2ccc(C(=O)O)n2n1 (stereo not drawn) [Compound 36, 4-[5-chloranyl-2-[2-[6-[di(methyl)amino]-2-methyl-4-oxidanylidene-5,6,7,8-tetrahydroquinazolin-3-yl]ethoxy]phenyl]-2-methyl-pyrrolo[1,2-b]pyridazine-7-carboxylic acid]
[1]; Homo sapiens, COLO 205, 72 h
  IC50: > 20000 nM
[2]; [3]
  IC50: > 5000 nM
Human eIF4E protein
  IC50: < 100 nM

## Cc1cc(-c2cc(Cl)ccc2OCCn2c(C)nc3c(c2=O)CC(N(C)C(=O)C2CCN(C)CC2)CC3)c2scc(C(=O)O)c2n1 (stereo not drawn) [Compound 74]
[1]; Homo sapiens, COLO 205, 72 h
  IC50: > 20000 nM
[2]; [3]
  IC50: > 5000 nM
Human eIF4E protein
  IC50: < 100 nM

## COC1CCc2nc(C)n(CCOc3ccc(Cl)cc3-c3cc(C)nc4c(C(=O)O)csc34)c(=O)c2C1 (single isomer, unassigned) [Compound 6]
[1]; Homo sapiens
  IC50: 5000 to 20000 nM
[2]; [5]
  IC50: 1000 to 5000 nM
Human eIF4E protein
  IC50: 100 to 500 nM

## Cc1cc(-c2cc(Cl)ccc2OCCn2c(C)nc3c(c2=O)CC(N(C)CC(F)F)CC3)c2scc(C(=O)O)c2n1 (stereo not drawn) [Compound 58]
[1]; Homo sapiens, COLO 205, 72 h
  IC50: < 5000 nM
[2]; [3]
  IC50: < 1000 nM
Human eIF4E protein
  IC50: < 100 nM

## Cc1cc(-c2cc(Cl)ccc2OCCn2c(C)nc3c(c2=O)CC(N2CC(F)(F)C2)CC3)c2scc(C(=O)O)c2n1 (stereo not drawn) [Compound 49]
[1]; Homo sapiens, COLO 205, 72 h
  IC50: 5000 to 20000 nM
[2]; [3]
  IC50: 1000 to 5000 nM
Human eIF4E protein
  IC50: 100 to 500 nM

## Cc1cc(-c2cc(Cl)ccc2OCCn2c(C)nc3c(c2=O)CC(N(C)C24CC(C)(C2)C4(F)F)CC3)c2scc(C(=O)O)c2n1 (stereo not drawn) [Compound 318]
[1]; Homo sapiens, COLO 205, 72 h
  IC50: 5000 to 20000 nM
[2]; [3]
  IC50: 1000 to 5000 nM
Human eIF4E protein
  IC50: < 100 nM

## COC(=O)c1csc2c(-c3cc(Cl)ccc3OCCn3c(C)nc4c(c3=O)CC(N(CC(F)(F)F)C3CC3)CC4)cc(C)nc12 (stereo not drawn) [Compound 353]
[1]; Homo sapiens, COLO 205, 72 h
  IC50: > 20000 nM
[2]; [3]
  IC50: > 5000 nM
Human eIF4E protein
  IC50: 500 to 5000 nM

## Cc1cc(-c2cc(Cl)ccc2OCCn2c(C)nc3c(c2=O)CC(N2CCC(F)(F)CC2)CC3)c2scc(C(=O)NS(C)(=O)=O)c2n1 (single isomer, unassigned) [Compound 251]
[1]; Homo sapiens, COLO 205, 72 h
  IC50: < 5000 nM
[2]; [3]
  IC50: < 1000 nM
Human eIF4E protein
  IC50: < 100 nM
